The test system of this experiment is CSM14.1 cells, VP16-induced death, ATP luminescence, 48 h. Put plainly: protection against VP16 DNA-damage killing – cell-based, undifferentiated CSM14.1, ATP content, selectivity assay for ER stress death inhibitor project, late-stage follow-up (AID 1345). The note with it: at 25 µM; stronger effect = higher value.

The source made the active and inactive calls.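 Rule for the calls: active = survival above 70% of the untreated level at 25 µM; inactive = the rest.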

One may read the viability as a read-out of living cells in per cent, often relative to untreated cells. On to `COc1ccc(C2CC(=O)C3=C(C2)Nc2ccccc2NC3c2cc(C)ccc2C)cc1` (stereo unspecified), for which the viability is 56% (inactive). On to `O=C1CC(c2ccccc2)CC2=C1C(c1c(F)cccc1Cl)Nc1ccccc1N2` (stereo unspecified), for which the viability was 50% (inactive). With `CC1(C)CC(=O)C2=C(C1)Nc1ccccc1NC2c1ccc(-c2ccccc2)cc1` (stereo unspecified), the viability was 53% (inactive). Next, `CCOc1cccc(C2Nc3ccccc3NC3=C2C(=O)CC(c2ccc(OC)cc2)C3)c1` (stereo unspecified): 50% (inactive).

Regarding `COc1ccc(C2CC(=O)C3=C(C2)Nc2ccccc2NC3c2ccccc2C(F)(F)F)cc1OC` (stereo unspecified), the viability is 50% (inactive). In the case of `CSc1ccc(C2Nc3ccccc3NC3=C2C(=O)CC(c2ccccc2)C3)cc1` (stereo unspecified) it was 52% (inactive); in that of `COc1ccc(C2CC(=O)C3=C(C2)Nc2ccccc2NC3c2cccc(C(F)(F)F)c2)cc1OC` (stereo unspecified), 49% (inactive).

Take `CCCOc1ccc(C2Nc3ccccc3NC3=C2C(=O)CC(c2ccc(OC)c(OC)c2)C3)cc1` (stereo unspecified): the viability was 57% (inactive). In the case of `COc1ccc(C2CC(=O)C3=C(C2)Nc2ccccc2NC3c2cccc(Oc3ccccc3)c2)cc1OC` (stereo unspecified) it was 54% (inactive); in that of `COc1ccc(C2CC(=O)C3=C(C2)Nc2ccccc2NC3c2cccc(Br)c2)cc1OC` (stereo unspecified), 56% (inactive). In the case of `CCOc1cc(C2Nc3ccccc3NC3=C2C(=O)CC(c2ccc(OC)cc2)C3)cc(Cl)c1O` (stereo unspecified) it was 42% (inactive).

The record behind these values is PubChem BioAssay AID1345 (Sanford-Burnham Center for Chemical Genomics, 2008).
